pEC50: −log10 of the molar value. The source made the active and inactive calls. The rule behind the calls is not given here.
How the values were obtained:
[1] = target: T1, Trace amine-associated receptor 1 (Homo sapiens) (UniProt Q96RJ0); experiment: Antagonist activity at human TAAR1 receptor expressed in HEK293T cells cotransfected with beta-2 receptor assessed as inhibition of beta-PEA-induced cAMP production at 100 uM by BRET assay; assay type: functional, cell-based; conditions: HEK-293T
T1 sequence (whole entry): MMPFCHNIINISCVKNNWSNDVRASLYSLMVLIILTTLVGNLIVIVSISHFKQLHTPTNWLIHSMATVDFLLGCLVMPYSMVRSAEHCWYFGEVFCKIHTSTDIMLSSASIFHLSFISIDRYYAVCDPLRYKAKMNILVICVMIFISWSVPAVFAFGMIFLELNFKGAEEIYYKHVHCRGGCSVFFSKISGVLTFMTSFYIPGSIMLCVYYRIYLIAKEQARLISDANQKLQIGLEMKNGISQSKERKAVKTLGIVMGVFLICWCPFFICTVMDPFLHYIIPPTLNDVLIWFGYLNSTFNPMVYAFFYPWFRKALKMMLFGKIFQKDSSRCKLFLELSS

[2] = target: T1, Trace amine-associated receptor 1 (Homo sapiens); experiment: Agonist activity at human TAAR1 receptor expressed in HEK293T cells cotransfected with beta-2 receptor assessed as cAMP production at 100 uM by BRET assay; assay type: functional, cell-based; conditions: HEK-293T
[3] = target: T2, Trace amine-associated receptor 1 (Homo sapiens, UniProt Q96RJ0); experiment: Agonist activity at human TAAR1 receptor expressed in HEK293T cells cotransfected with beta-2 receptor assessed as cAMP production by BRET assay; assay type: functional, cell-based, HEK-293T
T2 sequence (Q96RJ0 whole entry): T1 sequence (whole entry)

[4] = target: T1, Trace amine-associated receptor 1 (Homo sapiens); experiment: Agonist activity at human TAAR1 receptor expressed in HEK293T cells cotransfected with beta-2 receptor assessed as cAMP production by BRET assay relative to beta-PEA; assay type: functional, cell-based; design: concentration or dose not given beside the values; conditions: HEK-293T

Compound | Activity [1] | Activity [2] | pEC50 [3] | Activity [4] [%]
C=CCn1cc(CN[C@H](C)Cn2ccc3ccccc32)c(C)n1 | Active |  |  | 
CN(Cn1ncc2cc([N+](=O)[O-])ccc21)[C@@H]1CCc2ccccc21 |  | Active |  | 
Cc1cccc(CCN(C)C[C@H](O)c2ccccc2)c1 |  | Active | 4.29 | 67.5
Clc1ccc(CNCc2ccc(Cn3cncn3)cc2)c(Cl)c1 | Active |  |  | 
Cn1c(CN)nc2ccccc21 |  |  | < 4.00 | 21.6
COc1cccc(/C=N/NC(=N)N)c1 | Active | Active |  | 24
CNCc1nc2ccccc2n1C(F)F |  | Active |  | 
N=C(N)c1cccc(COc2ccccc2)c1 | Active |  |  | 
NCCc1ccccc1 [PHENETHYLAMINE] |  |  | 6.96 | 
Fc1ccc2c(CCNCc3cnn(-c4ccccc4)c3)c[nH]c2c1 | Active |  |  | 
NC(N)=N/N=C/c1cccc(OCc2ccccc2)c1 |  |  | < 4.00 | 
C[C@@H](CNCCO)c1ccccc1 |  | Active |  | 
c1ccc2c(c1)nnn2C[C@H]1CCCN1 |  | Active |  | 
NC(N)=N/N=C/c1cccc(Br)c1 |  |  | < 4.00 | 
CN(Cc1ccc(Br)cc1)Cc1cccc(C(N)=O)c1 | Active |  |  | 
CCn1c(C2CCCN2)nc2ccccc21 (centres undefined) |  |  | < 4.00 | 22.1
c1ccc2sc(C3CCCN3)nc2c1 (centres undefined) |  |  | < 4.00 | 42.9
Cn1c(C2CCCCN2)nc2ccccc21 (centres undefined) |  |  | < 4.00 | 38.4
C#CCN[C@H](C)Cc1ccccc1 |  | Active |  | 
N=C(N)N/N=C1\CCCc2ccccc21 | Active |  |  | 
COc1cccc(/C=N/N=C(N)N)c1 |  |  | 5.91 | 
N=C(N)N/N=C/c1c(Cl)cccc1Cl [GUANABENZ] |  |  | 7.05 | 35.5
CC(C)n1c(C2CCCN2)nc2ccccc21 (centres undefined) |  |  | 4.92 | 43.4
N=C(N)N/N=C/c1cccc(Br)c1 |  |  |  | -5.4
N=C(N)N/N=C/c1ccccc1 |  |  | 6.77 | 85.5
CCC(=O)/N=C(\N)Nc1nc2ccccc2o1 | Active |  |  | 
N=C(N)N/N=C/c1ccc2c(c1)OCO2 |  |  | < 4.00 | 6.9
COc1ccc2[nH]cc(CN(C)C)c2c1 |  | Active |  | 
N=C(N)N/N=C/c1cccc(OCc2ccccc2)c1 |  |  |  | 75
Cn1c(C2CCCN2)nc2ccccc21 (centres undefined) |  | Active | 4.74 | 55.8
